Like-named read-outs stand apart in the source and are kept apart here. Starred links: 1 amine or outer side, 2 acyl side, 3 side chain; linkers in the order of their positions; H or OH if unused. Positions of bridges follow the written chain, without caps; N, C: chain ends. Non-standard residues stand in square brackets, D forms with d. Residues, ends and D or L forms follow the SMILES beside them. Groups on a side chain read outwards from the residue. *: point of attachment. X13 = O=C(O)c1ccc(-n2cc(C[C@H](N[*:1])C(=O)[*:2])c3ccccc32)cc1; Phe(3-OCH2COOH) = N[C@@H](Cc1cccc(OCC(=O)O)c1)C(=O)O; Trp(1-Ph) = N[C@@H](Cc1cn(-c2ccccc2)c2ccccc12)C(=O)O; NMePhe(4-CH2NH2) = CN[C@@H](Cc1ccc(CN)cc1)C(=O)O; Piperidine(4-CH2CH2CONH2) = NC(=O)CCC1CCN(*)CC1; Trp(6-OH) = N[C@@H](Cc1c[nH]c2cc(O)ccc12)C(=O)O; Phe(4-COOH) = N[C@@H](Cc1ccc(C(=O)O)cc1)C(=O)O; Piperazinyl(4-CH2COOH) = O=C(O)CN1CCN(*)CC1; Piperidinyl(4-CH2COOH) = O=C(O)CC1CCN(*)CC1; Gly(N(CH2)3COOH) = O=C(O)CCCNCC(=O)O; Gly(octyl) = CCCCCCCC[C@H](N)C(=O)O; X1 = CCCCCCC[C@H](N[*:1])C(=O)[*:2]; Gly(N-(CH2)3OMe) = COCCCNCC(=O)O; NMeF = CN[C@@H](Cc1ccccc1)C(=O)O; NMeE = CN[C@@H](CCC(=O)O)C(=O)O; NMeA = CN[C@@H](C)C(=O)O; X9 = NC(=O)CC1CCN(*)CC1; CO = O=C([*:1])[*:2]; Sar = CNCC(=O)O
Assays:
[1] = molecular target: T1, GDF-11 (Homo sapiens, UniProt O95390); assay: HepG2 reporter gene assay, Evaluation Procedure (2): 2-concentrations assay, GDF-11 inhibition; type: cell-based; conditions: read-out: inhibition rate (GDF-11 inhibition assay)
T1 construct: purchased R&D systems 1958-GD-G8/CF
T1 sequence (O95390 299-407): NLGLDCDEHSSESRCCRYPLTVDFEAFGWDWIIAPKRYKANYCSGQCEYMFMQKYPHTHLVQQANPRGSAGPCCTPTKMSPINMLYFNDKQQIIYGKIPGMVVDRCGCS
Summary of the method: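 HepG2 cells carrying the transfected pGL3(CAGA)12-luc reporter, a pGL3 vector with luciferase placed downstream of 12 CAGA repeats, were stimulated with GDF-11 at a final 10 ng/mL together with test peptide. Blank wells received no GDF-11 and no peptide. Plates were incubated 20 to 24 hours at 37°C with 5% CO2. Luminescence from One-Glo substrate was read to calculate percent inhibition.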

[2] = molecular target: T2, Myostatin (Homo sapiens, UniProt O14793); assay: HepG2 reporter gene assay, Evaluation Procedure (2): 2-concentrations assay, myostatin inhibition; type: cell-based; conditions: Table 7-3/7-4, myostatin 10 ng/mL, HepG2, read-out: inhibition rate (myostatin inhibition assay); for inhibition at 0.1 µM: peptide at the higher of the 2 concentrations; for inhibition at 0.03 µM: peptide at the lower of the 2 concentrations
T2 construct: active myostatin (also called mature myostatin) is a homodimer consisting of two C-terminal growth factor domains; purchased R&D systems 788-G8/CF
T2 sequence (O14793 267-375): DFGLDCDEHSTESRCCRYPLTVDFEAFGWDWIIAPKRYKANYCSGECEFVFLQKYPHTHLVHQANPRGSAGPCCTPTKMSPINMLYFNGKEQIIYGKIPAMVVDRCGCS
Summary of the method: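 Myostatin inhibition was measured in a luciferase reporter assay using HepG2 cells transfected with a pGL3 vector containing 12 CAGA repeats upstream of luciferase. After 20 to 24 hours with 10 ng/mL myostatin, cells received One-Glo:PBS (1:1) at 100 µL/well, were shaken for 5 min, and 20 µL/well was moved to 384-well plates and read on an Envision 2104.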

[3] = HepG2, first GDF-11 column of Table 7-3/7-4, GDF-11 10 ng/mL, peptide at the lower of the 2 concentrations
[4] = HepG2, second GDF-11 column of Table 7-3/7-4, GDF-11 10 ng/mL, peptide at the higher of the 2 concentrations

Row | inhibition [1, 3] [%] | inhibition [1, 4] [%] | inhibition at 0.1 µM [2] [%] | inhibition at 0.03 µM [2] [%] | SMILES
1 | 0 | 0 | 100 | 100 | CCCCCCC[C@@H]1NC(=O)[C@H](Cc2ccccc2)N(C)C(=O)[C@H](CCCNC(=N)N)NC(=O)[C@H](Cc2ccc(C(=O)O)cc2)NC(=O)[C@H](Cc2cccc(OCC(=O)O)c2)NC(=O)[C@H](C)N(C)C(=O)[C@H]([C@@H](C)CC)NC(=O)[C@H](Cc2ccccc2)N(C)C(=O)[C@H](Cc2ccc(O)cc2)NC(=O)[C@H](Cc2cn(-c3ccccc3)c3ccccc23)NC(=O)[C@H](C)NC(=O)CN(CCCC(=O)O)C(=O)CSC[C@H](C(=O)O)NC(=O)[C@H](Cc2ccccc2)N(C)C(=O)[C@H](C)N(C)C1=O [Myostatin_99_v380] ({CH2CO}-[Gly(N(CH2)3COOH)]A[Trp(1-Ph)]Y[NMeF]I[NMeA][Phe(3-OCH2COOH)][Phe(4-COOH)]R[NMeF][X1][NMeA][NMeF][dC]-OH; thioether N-15)
2 | 0 | 44 | 100 | 100 | CCCCCCCC[C@@H]1NC(=O)[C@H](Cc2ccccc2)N(C)C(=O)[C@H](CCCNC(=N)N)NC(=O)[C@H](Cc2ccc(C(=O)O)cc2)NC(=O)[C@H](Cc2cccc(OCC(=O)O)c2)NC(=O)CN(C)C(=O)[C@H]([C@@H](C)CC)NC(=O)[C@H](Cc2ccccc2)N(C)C(=O)[C@H](Cc2ccc(O)cc2)NC(=O)[C@H](Cc2c[nH]c3cc(O)ccc23)NC(=O)[C@H](C)NC(=O)CN(CCCOC)C(=O)CSC[C@H](C(N)=O)NC(=O)[C@H](Cc2ccccc2)N(C)C(=O)[C@H](C)N(C)C1=O [Myostatin_99_v414] ({CH2CO}-[Gly(N-(CH2)3OMe)]A[Trp(6-OH)]Y[NMeF]I[Sar][Phe(3-OCH2COOH)][Phe(4-COOH)]R[NMeF][Gly(octyl)][NMeA][NMeF][dC]-NH2; thioether N-15)
3 | 0 | 0 | 100 | 100 | CCCCCCC[C@@H]1NC(=O)[C@@H]2Cc3ccc(cc3)CNC(=O)CC[C@@H](C(=O)N[C@@H](C)C(=O)N[C@@H](Cc3cn(-c4ccc(C(=O)O)cc4)c4ccccc34)C(=O)N[C@@H](Cc3ccc(O)cc3)C(=O)N(C)[C@@H](Cc3ccccc3)C(=O)N[C@@H]([C@@H](C)CC)C(=O)N3CCC[C@@H]3C(=O)N[C@@H](Cc3cccc(OCC(=O)O)c3)C(=O)N[C@@H](Cc3ccc(C(=O)O)cc3)C(=O)N[C@@H](CCCNC(=N)N)C(=O)N2C)N(C)C(=O)CSC[C@H](C(=O)O)NC(=O)[C@H](Cc2ccccc2)N(C)C(=O)[C@H](C)N(C)C1=O [Myostatin_99_v423] ({CH2CO}-[NMeE]A[X13]Y[NMeF]I[dP][Phe(3-OCH2COOH)][Phe(4-COOH)]R[NMePhe(4-CH2NH2)][X1][NMeA][NMeF][dC]-OH; lactam 1-11; thioether N-15)
4 | 0 | 0 | 100 | 98 | CCCCCCC[C@@H]1NC(=O)[C@H](Cc2ccccc2)N(C)C(=O)[C@H](CCCNC(=N)N)NC(=O)[C@H](Cc2ccc(C(=O)O)cc2)NC(=O)[C@H](Cc2cccc(OCC(=O)O)c2)NC(=O)CN(C)C(=O)[C@H]([C@@H](C)CC)NC(=O)[C@H](Cc2ccccc2)N(C)C(=O)[C@H](Cc2ccc(O)cc2)NC(=O)[C@H](Cc2c[nH]c3ccccc23)NC(=O)[C@H](C)NC(=O)[C@H](C)NC(=O)CSC[C@H](C(=O)N[C@@H](CCCCNC(=O)N2CCN(CC(=O)O)CC2)C(=O)O)NC(=O)[C@H](Cc2ccccc2)N(C)C(=O)[C@H](C)N(C)C1=O [Myostatin_99_v427] ({CH2CO}-AAWY[NMeF]I[Sar][Phe(3-OCH2COOH)][Phe(4-COOH)]R[NMeF][X1][NMeA][NMeF][dC]K([CO-Piperazinyl(4-CH2COOH)])-OH; thioether N-15)
5 | 0 | 0 | 99 | 96 | CCCCCCC[C@@H]1NC(=O)[C@H](Cc2ccccc2)N(C)C(=O)[C@H](CCCNC(=N)N)NC(=O)[C@H](Cc2ccc(C(=O)O)cc2)NC(=O)[C@H](Cc2cccc(OCC(=O)O)c2)NC(=O)[C@H](C)N(C)C(=O)[C@H]([C@@H](C)CC)NC(=O)[C@H](Cc2ccccc2)N(C)C(=O)[C@H](Cc2ccc(O)cc2)NC(=O)[C@H](Cc2c[nH]c3ccccc23)NC(=O)[C@H](C)NC(=O)CN(CCCC(=O)O)C(=O)CSC[C@H](C(=O)N[C@@H](CCCCNC(=O)N2CCN(CC(=O)O)CC2)C(=O)O)NC(=O)[C@H](Cc2ccccc2)N(C)C(=O)[C@H](C)N(C)C1=O [Myostatin_99_v428] ({CH2CO}-[Gly(N(CH2)3COOH)]AWY[NMeF]I[NMeA][Phe(3-OCH2COOH)][Phe(4-COOH)]R[NMeF][X1][NMeA][NMeF][dC]K([CO-Piperazinyl(4-CH2COOH)])-OH; thioether N-15)
6 | 0 | 0 | 100 | 100 | CCCCCCC[C@@H]1NC(=O)[C@H](Cc2ccccc2)N(C)C(=O)[C@H](CCCNC(=N)N)NC(=O)[C@H](Cc2ccc(C(=O)O)cc2)NC(=O)[C@H](Cc2cccc(OCC(=O)O)c2)NC(=O)[C@H](C)N(C)C(=O)[C@H]([C@@H](C)CC)NC(=O)[C@H](Cc2ccccc2)N(C)C(=O)[C@H](Cc2ccc(O)cc2)NC(=O)[C@H](Cc2c[nH]c3ccccc23)NC(=O)[C@H](C)NC(=O)CN(CCCC(=O)O)C(=O)CSC[C@H](C(=O)N2CCN(CC(=O)O)CC2)NC(=O)[C@H](Cc2ccccc2)N(C)C(=O)[C@H](C)N(C)C1=O [Myostatin_99_v429] ({CH2CO}-[Gly(N(CH2)3COOH)]AWY[NMeF]I[NMeA][Phe(3-OCH2COOH)][Phe(4-COOH)]R[NMeF][X1][NMeA][NMeF][dC]-{Piperazinyl(4-CH2COOH)}; thioether N-15)
7 | 0 | 0 | 100 | 100 | CCCCCCC[C@@H]1NC(=O)[C@H](Cc2ccccc2)N(C)C(=O)[C@H](CCCNC(=N)N)NC(=O)[C@H](Cc2ccc(C(=O)O)cc2)NC(=O)[C@H](Cc2cccc(OCC(=O)O)c2)NC(=O)[C@H](C)N(C)C(=O)[C@H]([C@@H](C)CC)NC(=O)[C@H](Cc2ccccc2)N(C)C(=O)[C@H](Cc2ccc(O)cc2)NC(=O)[C@H](Cc2c[nH]c3ccccc23)NC(=O)[C@H](C)NC(=O)CN(CCCC(=O)O)C(=O)CSC[C@H](C(=O)N2CCC(CC(=O)O)CC2)NC(=O)[C@H](Cc2ccccc2)N(C)C(=O)[C@H](C)N(C)C1=O [Myostatin_99_v430] ({CH2CO}-[Gly(N(CH2)3COOH)]AWY[NMeF]I[NMeA][Phe(3-OCH2COOH)][Phe(4-COOH)]R[NMeF][X1][NMeA][NMeF][dC]-{Piperidinyl(4-CH2COOH)}; thioether N-15)
8 | 0 | 0 | 100 | 100 | CCCCCCC[C@@H]1NC(=O)[C@H](Cc2ccccc2)N(C)C(=O)[C@H](CCCNC(=N)N)NC(=O)[C@H](Cc2ccc(C(=O)O)cc2)NC(=O)[C@H](Cc2cccc(OCC(=O)O)c2)NC(=O)[C@H](C)N(C)C(=O)[C@H]([C@@H](C)CC)NC(=O)[C@H](Cc2ccccc2)N(C)C(=O)[C@H](Cc2ccc(O)cc2)NC(=O)[C@H](Cc2c[nH]c3ccccc23)NC(=O)[C@H](C)NC(=O)CN(CCCC(=O)O)C(=O)CSC[C@H](C(=O)N2CCC(CCC(N)=O)CC2)NC(=O)[C@H](Cc2ccccc2)N(C)C(=O)[C@H](C)N(C)C1=O [Myostatin_99_v431] ({CH2CO}-[Gly(N(CH2)3COOH)]AWY[NMeF]I[NMeA][Phe(3-OCH2COOH)][Phe(4-COOH)]R[NMeF][X1][NMeA][NMeF][dC]-{Piperidine(4-CH2CH2CONH2)}; thioether N-15)
9 | 0 | 0 | 100 | 100 | CCCCCCC[C@@H]1NC(=O)[C@H](Cc2ccccc2)N(C)C(=O)[C@H](CCCNC(=N)N)NC(=O)[C@H](Cc2ccc(C(=O)O)cc2)NC(=O)[C@H](Cc2cccc(OCC(=O)O)c2)NC(=O)[C@H](C)N(C)C(=O)[C@H]([C@@H](C)CC)NC(=O)[C@H](Cc2ccccc2)N(C)C(=O)[C@H](Cc2ccc(O)cc2)NC(=O)[C@H](Cc2c[nH]c3ccccc23)NC(=O)[C@H](C)NC(=O)CN(CCCC(=O)O)C(=O)CSC[C@H](C(=O)N2CCC(CC(N)=O)CC2)NC(=O)[C@H](Cc2ccccc2)N(C)C(=O)[C@H](C)N(C)C1=O [Myostatin_99_v432] ({CH2CO}-[Gly(N(CH2)3COOH)]AWY[NMeF]I[NMeA][Phe(3-OCH2COOH)][Phe(4-COOH)]R[NMeF][X1][NMeA][NMeF][dC]-X9; thioether N-15)
